# Assay results reported in US10125098B2, “Therapeutic compounds and methods of use thereof” (GENENTECH, INC., priority 2014, dated 2018).
# Counter-ions that a name gives are not always drawn. Like-named read-outs stand apart in the source and are kept apart here.
# Assays:
# hNav1.7 = target: T1, hNav1.7 (Homo sapiens, UniProt Q15858); assay: Tritiated compound binding (LBA) to membranes from cells expressing hNav1.7 and the β1 subunit, competitive binding; conditions: competitive binding vs 100 pM [3H]compound, 18 h, room temperature, membranes with hNav1.7 and β1 subunit
# T1 construct: expressed in transfected cells
# Method: Tritiated Compound Binding to Membranes
# Isolated from Cells that Heterologously Express hNav1.7 and the β1 Subunit
# Preparation of membranes containing recombinantly expressed sodium channels: Frozen recombinant cell pellets were thawed on ice and diluted to 4 times the cell pellet weight with ice cold 50 mM Tris HCl, pH 7.4 buffer. The cell suspensions were homogenized on ice using a motorized glass dounce homogeniser. […] The supernatants were collected and centrifuged at 10000×g at 4° C. for 50 min. The pellets were then re-suspended in 100 mM NaCl, 20 mM Tris HCl, pH 7.4 buffer containing 1% v/v protease inhibitors (Calbiochem) and re-homogenized on ice. The homogenized membranes were then processed through a syringe equipped with a 26 gauge needle. Protein concentrations were determined by Bradford Assay and the membranes were stored at −80° C.
# Saturation experiments. A representative compound of formula (I) having a methyl group was tritiated. Three tritiums were incorporated in place of methyl hydrogens to generate [^3H]compound. Binding of this radioligand was performed in 5 mL borosilicate glass test tubes at room temperature. Binding was initiated by adding membranes to increasing concentrations of [^3H]compound in 100 mM NaCl, 20 mM Tris HCl, pH 7.4 buffer containing 0.01% w/v bovine serum albumin (BSA) for 18 h. Non-specific binding was determined in the presence of 1 μM unlabeled compound. After 18 h, the reactants were filtered through GF/C glass fiber filters presoaked in 0.5% w/v polyethylene imine. […] [^3H]compound bound to filters was quantified by liquid scintillation counting.
# Binding reactions were performed in 96-well polypropylene plates at room temperature for 18 h. In 360 μL, membranes were incubated with 100 pM [^3H]compound and increasing concentrations of Test Compound. Non-specific binding was defined in the presence of 1 μM unlabeled compound. Reactions were transferred and filtered through 96-well glass fiber/C filter plates presoaked with 0.5% polyethylene imine. […] Bound radioactivity was determined by liquid scintillation counting.
# Data Analysis: For saturation experiments, non-specific binding was subtracted from total binding to provide specific binding and these values were recalculated in terms of pmol ligand bound per mg protein. Saturation curves were constructed and dissociation constants were calculated using the single site ligand binding model: Beq=(Bmax*X)/(X+Kd), where Beq is the amount of ligand bound at equilibrium, Bmax is the maximum receptor density, Kd is the dissociation constant for the ligand, and X is the free ligand concentration. For competition studies percent inhibition was determined and IC50 values were calculated using a 4 parameter logistic model (% inhibition=(A+((B−A)/(1+((x/C)^D)))) using XLfit, where A and B are the maximal and minimum inhibition respectively, C is the IC50 concentration and D is the (Hill) slope.
# human NaV1.7 = target: T2, human NaV1.7 (Homo sapiens, UniProt Q15858); assay: Patch voltage clamp electrophysiology assay (EP), NaV1.7; assay type: cell-based; conditions: HEK-293 cells stably expressing NaV1.7 with β1 subunit; whole-cell patch clamp, membrane potential −60 mV (inactivated state)
# T2 construct: permanently transfected with an expression vector containing the full-length cDNA coding for the desired human sodium channel α-subunit; expressed in transfected cells; host or cells: HEK-293
# Method: (§1) The following patch voltage clamp electrophysiology studies were performed on representative compounds of the invention using human embryonic kidney cells (HEK), permanently transfected with an expression vector containing the full-length cDNA coding for the desired human sodium channel α-subunit, grown in culture media containing 10% FBS, 1% PSG, and 0.5 mg/mL G418 at 37° C. with 5% CO2. […] NaV1.7 and NaV1.5 cDNAs (NM_002977 and AC137587; SCN5A, respectively) were stably expressed in HEK-293 cells. The β1 subunit was coexpressed in both the NaV1.7 and NaV1.5 cell lines.
# (§2) Sodium currents were measured using the patch clamp technique in the whole-cell configuration using either a PatchXpress automated voltage clamp or manually using an Axopatch 200B (Axon Instruments) or Model 2400 (A-M systems) amplifier. The manual voltage clamp protocol was as follows: Borosilicate glass micropipettes were fire-polished to a tip diameter yielding a resistance of 2-4 Mohms in the working solutions. The pipette was filled with a solution comprised of: 5 mM NaCl, 10 mM CsCl, 120 mM CsF, 0.1 mM CaCl2, 2 mM MgCl2, 10 mM HEPES, 10 mM EGTA; and adjusted to pH 7.2 with CsOH. The external solution had the following composition: 140 mM NaCl, 5 mM KCl, 2 mM CaCl2, 1 mM MgCl2, 10 mM HEPES; and adjusted to pH 7.4 with NaOH. In some studies, the external sodium was reduced by equimolar replacement with choline. Osmolarity in the CsF internal and NaCl external solutions was adjusted to 300 mOsm/kg and 310 mOsm/kg with glucose, respectively. All recordings were performed at ambient temperature in a bath chamber with a volume of 150 μL. Control sodium currents were measured in 0.5% DMSO. Controls and representative compounds of the invention were applied to the recording chamber through a 4-pinch or 8-pinch valve bath perfusion system manufactured by ALA Scientific Instruments.
# (§3) Series resistance compensation was applied (60-80%). […] All statistics in this study are given as mean±SD.
# (§4) The membrane potential was maintained at a voltage where inactivation of the channel is complete (which was −60 mV for both NaV1.7 and NaV1.5). The voltage is then stepped back to a very negative (Vhold=[…]) voltage for 20 ms and then a test pulse is applied to quantify the compound block. […] The percent decrease in sodium current following wash-on of compound was taken as the percent block of sodium channels.
# NaV1.5 = target: T3, NaV1.5 (Homo sapiens, UniProt Q14524); assay: Patch voltage clamp electrophysiology assay (EP), NaV1.5; assay type: cell-based; conditions: HEK-293 cells stably expressing NaV1.5 with β1 subunit, whole-cell patch clamp, membrane potential −60 mV (inactivated state)
# T3 construct: permanently transfected with an expression vector containing the full-length cDNA coding for the desired human sodium channel α-subunit; expressed in transfected cells; host or cells: HEK-293
# Method: as §1, §2, §3, §4
# [1] = human, HEK-293 cells stably expressing human NaV1.5 with β1 subunit, pH 7.4
# T1 sequence (Q15858 1-1977 isoform Q15858-3): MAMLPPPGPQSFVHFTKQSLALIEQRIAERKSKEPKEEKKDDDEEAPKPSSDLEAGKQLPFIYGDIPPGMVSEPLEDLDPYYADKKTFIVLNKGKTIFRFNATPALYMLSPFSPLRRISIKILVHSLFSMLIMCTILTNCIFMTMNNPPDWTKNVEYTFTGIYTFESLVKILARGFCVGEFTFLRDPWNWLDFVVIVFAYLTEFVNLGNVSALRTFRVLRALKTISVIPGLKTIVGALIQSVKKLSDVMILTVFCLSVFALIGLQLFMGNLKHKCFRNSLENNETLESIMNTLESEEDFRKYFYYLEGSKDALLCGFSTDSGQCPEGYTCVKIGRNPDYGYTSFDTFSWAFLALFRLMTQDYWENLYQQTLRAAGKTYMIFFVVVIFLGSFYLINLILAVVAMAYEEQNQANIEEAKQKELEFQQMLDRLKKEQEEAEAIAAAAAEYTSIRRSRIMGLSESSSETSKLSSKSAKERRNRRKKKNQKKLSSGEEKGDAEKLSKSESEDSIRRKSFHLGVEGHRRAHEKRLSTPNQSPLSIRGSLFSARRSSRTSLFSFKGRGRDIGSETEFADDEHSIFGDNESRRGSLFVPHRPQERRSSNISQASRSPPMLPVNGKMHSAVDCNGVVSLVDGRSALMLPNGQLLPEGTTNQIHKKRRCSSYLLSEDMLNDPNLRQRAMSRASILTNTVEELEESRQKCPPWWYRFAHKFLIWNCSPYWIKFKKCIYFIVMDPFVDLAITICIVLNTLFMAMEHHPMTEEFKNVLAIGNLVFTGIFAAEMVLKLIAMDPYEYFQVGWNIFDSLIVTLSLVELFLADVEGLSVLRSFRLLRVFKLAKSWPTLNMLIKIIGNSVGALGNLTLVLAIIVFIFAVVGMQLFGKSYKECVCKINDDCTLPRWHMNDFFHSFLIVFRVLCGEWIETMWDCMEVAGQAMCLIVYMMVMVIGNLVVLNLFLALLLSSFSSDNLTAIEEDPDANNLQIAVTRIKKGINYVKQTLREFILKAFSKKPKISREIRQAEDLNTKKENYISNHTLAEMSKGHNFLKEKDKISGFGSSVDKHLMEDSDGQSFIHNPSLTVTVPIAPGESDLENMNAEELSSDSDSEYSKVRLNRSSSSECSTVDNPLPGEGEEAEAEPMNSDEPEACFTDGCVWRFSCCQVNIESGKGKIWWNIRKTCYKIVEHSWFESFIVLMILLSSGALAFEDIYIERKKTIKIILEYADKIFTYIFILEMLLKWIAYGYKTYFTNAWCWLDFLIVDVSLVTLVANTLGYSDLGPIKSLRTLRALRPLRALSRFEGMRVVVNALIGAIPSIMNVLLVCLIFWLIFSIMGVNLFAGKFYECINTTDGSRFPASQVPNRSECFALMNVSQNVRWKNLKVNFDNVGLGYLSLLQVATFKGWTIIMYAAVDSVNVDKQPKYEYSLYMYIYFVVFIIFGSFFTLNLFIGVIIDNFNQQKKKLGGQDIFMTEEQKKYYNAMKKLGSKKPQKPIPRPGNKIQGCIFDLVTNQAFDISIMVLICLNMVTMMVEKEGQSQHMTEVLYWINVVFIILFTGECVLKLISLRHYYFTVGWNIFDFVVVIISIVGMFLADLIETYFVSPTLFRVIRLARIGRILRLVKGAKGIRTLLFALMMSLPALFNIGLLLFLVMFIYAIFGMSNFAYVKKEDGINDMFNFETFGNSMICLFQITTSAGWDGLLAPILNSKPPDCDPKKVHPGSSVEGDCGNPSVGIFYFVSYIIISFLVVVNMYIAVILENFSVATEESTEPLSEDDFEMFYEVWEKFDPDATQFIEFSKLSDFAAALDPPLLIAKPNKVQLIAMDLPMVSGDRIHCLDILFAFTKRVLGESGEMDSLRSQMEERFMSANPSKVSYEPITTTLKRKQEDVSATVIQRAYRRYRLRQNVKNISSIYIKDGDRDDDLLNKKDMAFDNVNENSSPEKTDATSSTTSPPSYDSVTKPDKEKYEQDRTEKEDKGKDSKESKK
# T1 sequence (Q07699 19-218 partner): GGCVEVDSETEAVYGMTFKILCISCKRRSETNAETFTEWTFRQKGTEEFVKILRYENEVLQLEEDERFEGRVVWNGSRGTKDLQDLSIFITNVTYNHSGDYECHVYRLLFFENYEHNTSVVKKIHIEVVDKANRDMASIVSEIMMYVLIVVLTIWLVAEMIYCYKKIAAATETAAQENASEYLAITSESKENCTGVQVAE
# T2 sequence (Q15858 1-1977 isoform Q15858-3): as the sequence (Q15858 1-1977 isoform Q15858-3) above
# T2 sequence (Q07699 19-218 partner): as the sequence (Q07699 19-218 partner) above
# T3 sequence (Q14524 whole entry): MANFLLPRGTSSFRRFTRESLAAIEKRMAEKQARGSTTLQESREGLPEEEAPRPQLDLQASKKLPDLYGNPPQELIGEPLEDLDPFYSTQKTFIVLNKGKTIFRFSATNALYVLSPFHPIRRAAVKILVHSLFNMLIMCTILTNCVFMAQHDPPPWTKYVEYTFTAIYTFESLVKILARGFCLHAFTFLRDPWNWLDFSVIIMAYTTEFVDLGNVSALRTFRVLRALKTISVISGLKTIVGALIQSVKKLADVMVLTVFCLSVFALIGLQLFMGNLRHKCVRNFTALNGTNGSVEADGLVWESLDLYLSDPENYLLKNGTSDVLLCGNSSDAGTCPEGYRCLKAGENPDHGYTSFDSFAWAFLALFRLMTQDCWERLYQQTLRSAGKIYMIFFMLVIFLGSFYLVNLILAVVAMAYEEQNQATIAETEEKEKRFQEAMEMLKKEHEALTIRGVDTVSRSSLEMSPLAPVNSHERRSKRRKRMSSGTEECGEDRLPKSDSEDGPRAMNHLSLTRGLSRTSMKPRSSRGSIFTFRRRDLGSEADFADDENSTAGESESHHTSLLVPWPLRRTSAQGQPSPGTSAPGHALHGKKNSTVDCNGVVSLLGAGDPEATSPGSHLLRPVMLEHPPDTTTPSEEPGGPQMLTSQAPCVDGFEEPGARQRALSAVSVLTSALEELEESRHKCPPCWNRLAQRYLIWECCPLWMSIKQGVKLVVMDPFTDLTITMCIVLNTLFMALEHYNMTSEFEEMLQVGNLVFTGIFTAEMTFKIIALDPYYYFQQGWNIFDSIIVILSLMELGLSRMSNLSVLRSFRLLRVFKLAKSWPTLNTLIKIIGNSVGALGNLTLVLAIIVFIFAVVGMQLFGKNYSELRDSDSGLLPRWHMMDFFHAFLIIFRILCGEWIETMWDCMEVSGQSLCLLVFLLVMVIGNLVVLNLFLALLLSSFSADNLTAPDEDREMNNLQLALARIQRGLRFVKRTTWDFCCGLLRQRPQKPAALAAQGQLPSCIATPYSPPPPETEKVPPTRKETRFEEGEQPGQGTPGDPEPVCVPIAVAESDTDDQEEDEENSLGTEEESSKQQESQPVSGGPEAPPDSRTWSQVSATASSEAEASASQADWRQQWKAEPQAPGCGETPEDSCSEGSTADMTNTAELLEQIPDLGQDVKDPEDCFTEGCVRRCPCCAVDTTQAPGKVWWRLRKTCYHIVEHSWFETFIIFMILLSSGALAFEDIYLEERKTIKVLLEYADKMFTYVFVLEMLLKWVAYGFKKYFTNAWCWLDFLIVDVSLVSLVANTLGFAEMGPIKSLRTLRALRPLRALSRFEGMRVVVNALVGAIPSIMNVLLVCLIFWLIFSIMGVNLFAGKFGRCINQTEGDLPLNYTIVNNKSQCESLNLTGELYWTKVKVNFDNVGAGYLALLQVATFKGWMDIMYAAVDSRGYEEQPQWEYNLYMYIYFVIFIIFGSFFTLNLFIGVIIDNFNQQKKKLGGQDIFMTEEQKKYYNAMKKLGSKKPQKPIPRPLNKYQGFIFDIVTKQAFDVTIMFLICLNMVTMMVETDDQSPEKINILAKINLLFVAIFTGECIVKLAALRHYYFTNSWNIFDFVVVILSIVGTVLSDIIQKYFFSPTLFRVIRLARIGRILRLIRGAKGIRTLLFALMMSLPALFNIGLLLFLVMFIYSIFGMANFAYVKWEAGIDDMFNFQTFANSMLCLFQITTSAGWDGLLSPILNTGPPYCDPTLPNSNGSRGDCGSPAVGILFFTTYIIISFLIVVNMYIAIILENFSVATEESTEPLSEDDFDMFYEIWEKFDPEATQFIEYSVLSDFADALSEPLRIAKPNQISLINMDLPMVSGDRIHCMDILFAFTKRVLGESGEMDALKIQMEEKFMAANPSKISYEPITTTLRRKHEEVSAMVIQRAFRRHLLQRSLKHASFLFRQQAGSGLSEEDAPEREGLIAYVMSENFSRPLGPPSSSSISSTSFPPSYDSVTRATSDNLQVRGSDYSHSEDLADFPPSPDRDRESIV
IC50 (hNav1.7) [nM],IC50 (human NaV1.7) [nM],SMILES,IC50 (NaV1.5; read-out: Nav1.5) [nM],IC50 (NaV1.5; [1]) [nM]
120,400,"O=C(O)[C@@H]1C[C@@H](F)CN1C(=O)c1cc(C2CC2)c(OCC2(F)CCN(Cc3ccc(C(F)(F)F)cc3Cl)CC2)cc1F [Example 127, (2S, 4R)-1-(4-((1-(2-chloro-4-(trifluoromethyl)benzyl)-4-fluoropiperidin-4-yl)methoxy)-5-cyclopropyl-2-fluorobenzoyl)-4-fluoropyrrolidine-2-carboxylic acid]",13000,–
≥ 10000,13000,"O=C(c1cc(C2CC2)c(OCC23CC4CC(CC(C4)C2)C3)cc1F)N1C[C@H](F)C[C@H]1C(O)(C(F)(F)F)C(F)(F)F [Example 201, (4-(adamantan-1-ylmethoxy)-5-cyclopropyl-2-fluorophenyl)((2S,4R)-4-fluoro-2-(1,1,1,3,3,3-hexafluoro-2-hydroxypropan-2-yl)pyrrolidin-1-yl)methanone]",24000,–
3580,532,"O=C(NC1(C(=O)O)CC1)c1cc(C2CC2)c(OCC23CC4CC(CC(C4)C2)C3)cc1F [Example 6, 1-(4-(adamantan-1-ylmethoxy)-5-cyclopropyl-2-fluorobenzamido)-cyclopropanecarboxylic acid]",2120,–
65,330,"O=C(O)[C@@H]1C[C@@H](F)CN1C(=O)c1cc(C2CC2)c(OCC2CCN(Cc3cc(Cl)cc(C(F)(F)F)c3)CC2)cc1F [Example 173, (2S,4R)-1-(4-((1-(3-chloro-5-(trifluoromethyl)benzyl)piperidin-4-yl)methoxy)-5-cyclopropyl-2-fluorobenzoyl)-4-fluoropyrrolidine-2-carboxylic acid]",23000,–
6.9,270,"C[C@H]1OCN(C(=O)c2cc(C3CC3)c(OCC3(C)CN([C@H](c4ccccc4)c4cc(Cl)cc(Cl)c4)C3)cc2F)[C@@H]1C(=O)O [Example 229, (4S,5R)-3-(5-cyclopropyl-4-((1-((R)-(3,5-dichlorophenyl)(phenyl)methyl)-3-methylazetidin-3-yl)methoxy)-2-fluorobenzoyl)-5-methyloxazolidine-4-carboxylic acid]",–,≥ 30000
20,880,"C[C@H]1CCN(C(=O)c2cc(C3CC3)c(OCC3CCN([C@H](c4cc(Cl)cc(Cl)c4)C(F)(F)F)CC3)cc2F)[C@@H]1C(=O)O (single isomer, unassigned) [Example 121a]",13000,–
50,230,"O=C(O)[C@@H]1CCCN1C(=O)c1cc(C2CC2)c(OCC2CCN(Cc3cc(Cl)ccc3C(F)(F)F)CC2)cc1F [Example 181, (S)-1-(4-((1-(5-chloro-2-(trifluoromethyl)benzyl)piperidin-4-yl)methoxy)-5-cyclopropyl-2-fluorobenzoyl)pyrrolidine-2-carboxylic acid]",–,≥ 30000
830,1400,"O=C(O)[C@@H]1CCCN1C(=O)c1cc(Cl)c(COc2cnc(OCC(F)(F)C(F)F)c(Cl)c2)cc1F [Example 180, (S)-1-(5-chloro-4-(((5-chloro-6-(2,2,3,3-tetrafluoropropoxy)pyridin-3-yl)oxy)methyl)-2-fluorobenzoyl)pyrrolidine-2-carboxylic acid]",–,≥ 30000
310,2400,"C[C@]1(COc2cc(F)c(C(=O)N3CCC[C@H]3C(=O)O)cc2C2CC2)CCN(Cc2cc(F)cc(Cl)c2)C1 (single isomer, unassigned) [Example 137b]",–,≥ 30000
≥ 10000,–,"Nc1noc2ccc(-c3cc(Cl)ccc3Oc3cc(F)c(C(=O)N4CCC[C@H]4C(=O)O)cc3F)cc12 [Example 192, (S)-1-(4-(2-(3-aminobenzo[d]isoxazol-5-yl)-4-chlorophenoxy)-2,5-difluorobenzoyl)pyrrolidine-2-carboxylic acid trifluoroacetate]",–,≥ 30000
–,–,"C[C@H]1CC[C@@H](C(=O)O)N1C(=O)c1cc(C2CC2)c(OCC23CC4CC(CC(C4)C2)C3)cc1F [Example 153, (2S,5S)-1-[4-(1-adamantylmethoxy)-5-cyclopropyl-2-fluoro-benzoyl]-5-methyl-pyrrolidine-2-carboxylic acid]",19000,–
–,–,"C[C@@H](c1cc(Cl)cc(Cl)c1)N1CCC(COc2cc(F)c(C(=O)N3C[C@H](F)C[C@H]3C(=O)O)cc2C2CC2)CC1 [Example 158, (2S,4R)-1-[5-cyclopropyl-4-[[1-[(1S)-1-(3,5-dichlorophenyl)ethyl]-4-piperidyl]methoxy]-2-fluoro-benzoyl]-4-fluoro-pyrrolidine-2-carboxylic acid]",–,≥ 30000
–,–,"C[C@@H]1CC[C@@H](C(=O)O)N1C(=O)c1cc(C2CC2)c(OCC23CC4CC(CC(C4)C2)C3)cc1F [Example 152, (2S,5R)-1-[4-(1-adamantylmethoxy)-5-cyclopropyl-2-fluoro-benzoyl]-5-methyl-pyrrolidine-2-carboxylic acid]",13000,–
40,640,"O=C(O)[C@@H]1CC(F)(F)CN1C(=O)c1cc(C2CC2)c(OCC23CC4CC(CC(C4)C2)C3)cc1F [Example 48, (2S)-1-[4-(1-adamantylmethoxy)-5-cyclopropyl-2-fluoro-benzoyl]-4,4-difluoro-pyrrolidine-2-carboxylic acid]",–,–
8400,11700,"CN(CC(=O)O)C(=O)c1cc(C2CC2)c(OCC23CC4CC(CC(C4)C2)C3)cc1F [Example 45, 2-(4-(adamantan-1-ylmethoxy)-5-cyclopropyl-2-fluoro-N-methylbenzamido)acetic acid]",–,–
≥ 10000,–,"O=C(O)[C@@H]1CCCN1C(=O)c1cc(C2CC2)c(O[C@H]2CCCN(Cc3ccc(F)cc3Cl)C2)cc1F [Example 95, (S)-1-(4-(((S)-1-(2-chloro-4-fluorobenzyl)piperidin-3-yl)oxy)-5-cyclopropyl-2-fluorobenzoyl)pyrrolidine-2-carboxylic acid]",–,≥ 30000
–,–,C[C@@H](c1cc(Cl)cc(Cl)c1)N1CCC(COc2cc(F)c(C(=O)N3C[C@H](F)C[C@H]3C(=O)O)cc2C2CC2)CC1 [Example 100],18000,–
